Target: guinea pig ileal longitudinal smooth muscle
Assay: Calcium channel antagonist testing: inhibition of muscarinic receptor-mediated Ca2+-dependent contraction (response to CD) of guinea pig ileal longitudinal smooth muscle
Assay type: cell-based
Details: 50% inhibition of tonic contraction to CD 5×10^-7 M; compound added 10 min before CD; 37° C., pH 7.4; read-out: Calcium channel antagonist act., inhib. act. on contractile response to CD, ID50
Description: Male albino guinea pigs (body weight 300-450 g) were sacrificed by decapitation. The intestine was removed above the ileo-caecal junction. Longitudinal smooth muscle segments of 2 cm length were mounted under a resting tension of 300-400 mg. […] The muscles were equilibrated for 1 h with a solution change every 15 min. Two successive control contractions were elicited at 15 min intervals with 5×10^-7 M cis-2-methyl- 4-dimethylaminomethyl-1,3-dioxolane methiodide (CD). The isometric contractions were recorded with a force displacement transducer (FT 03C) on a GRASS physiograph. The means of the two contractile responses was taken as the 100% value for the tonic (slow) component of the response. The muscle was washed with Hepes saline solution and was allowed to re-equilibrate. The calcium antagonist (test compound) was added ten min before the dose-response for CD was determined. The drug-induced inhibition of contraction was expressed as percent of control. The ID50 values were graphically determined from the concentration-response curves.

IC50 [µM]	Compound
3.7	Dimethyl 2,6-dimethyl-4-{3'-[N--phenoxycarbonyl-1',2'-(1',6'-)dihydropyridyl]}-1,4-dihydropyridine-3,5-dicarboxylate [Compound D-36]
0.031	3-Isobutyl-5-methyl 2,6-dimethyl-4-{3'-[N--methoxycarbonyl-1',2'-(1',6'-)dihydropyridyl]}-1,4-dihydropyridine-3,5-dicarboxylate [Compound D-43]

Same assay, conditions: Cavia porcellus; 50% inhibition of tonic contraction to CD 5×10^-7 M; compound added 10 min before CD; 37° C., pH 7.4; read-out: Calcium channel antagonist act., inhib. act. on contractile response to CD, ID50

Compound	IC50 [µM]
COC(=O)C1=C(C)NC(C)=C(C(=O)OC)C1C1CC=CCN1C [Compound D-64]	64.7
CC1=C(C(=O)OCCN(C)C)C(c2cccnc2)C(C(=O)OCCN(C)C)=C(C)N1 [Compound D-20, 3,5-Bis-[2-(N,N--dimethylamino)ethyl]2,6-dimethyl-4-(3'pyridyl)-1,4-dihydropyridine-3,5-dicarboxylate]	179
COC(=O)C1=C(C)NC(C)=C(C(=O)OCC(C)C)C1C1=CCN(C(=O)Oc2ccccc2)C=C1 [Compound D-61, 3-Isobutyl-5-methyl 2,6-dimethyl-4-[4'-(N--phenoxycarbonyl)]-1,4-dihydropyridine-3,5-dicarboxylate]	81
COC(=O)C1=C(C)NC(C)=C(C(=O)OC)C1C1=CCN(C)CC1 [Compound D-66, Dimethyl 2,6-dimethyl-4-[4'-(N--methyl-1',2',3',6'-tetrahydropyridyl)]-1,4-dihydropyridine-3,5-dicarboxylate]	181

Now from value to compound:

IC50 [µM]	Compound
8.92	COC(=O)C1=C(C)N(C)C(C)C(C(=O)OC)=C1c1ccc(C(F)(F)F)cc1 (stereo not drawn) [Compound W-1, Dimethyl 1,2,6-trimethyl-4-(4-trifluoromethylphenyl)-1,2-dihydropyridine-3,5-dicarboxylate]
0.56	COC(=O)C1=C(C)NC(C)=C(C(=O)OC(C)C)C1c1ccncc1 [Compound D-10, 3-Isopropyl-5-methyl 2,6-dimethyl-4-(4'-pyridyl)-1,4-dihydropyridine-3,5-dicarboxylate]
10.5	COC(=O)C1=C(C)N(C)C(C)C(C(=O)OC(C)C)=C1c1ccccc1[N+](=O)[O-] (stereo not drawn) [Compound W-3, 3-Isopropyl-5-methyl 1,2,6-trimethyl-4-(2-nitrophenyl)-1,2-dihydropyridine-3,5-dicarboxylate]
0.346	CCOC(=O)C1=C(C)NC(C)=C(C(=O)OCC)C1c1cccnc1 [Compound D-17, 3,5-Diethyl 2,6-dimethyl-4-(3'-pyridyl)-1,4-dihydropyridine-3,5-dicarboxylate]
0.18	CCOC(=O)C1=C(C)NC(C)=C(C(=O)OCC)C1c1ccccn1 [Compound D-13, 3,5-diethyl 2,6-dimethyl-4-(2'-pyridyl)-1,4-dihydropyridine-3,5-dicarboxylate]
2.15	COC(=O)C1=C(C)N(C)C(C)C(C(=O)OC)=C1c1ccccc1 (stereo not drawn) [Compound S-1, Dimethyl 1,2,6-trimethyl-4-phenyl-1,2-dihydropyridine-3,5-dicarboxylate]
2.32	COC(=O)C1=C(C)NC(C)=C(C(=O)OC)C1c1ccccn1 [Compound D-1, 3,5-dimethyl 2,6-dimethyl-4-(2'-pyridyl)-1,4-dihydropyridine-3,5-dicarboxylate]
7.9	COC(=O)C1=C(C)N(C)C(C)C(C(=O)OC)=C1c1cccc([N+](=O)[O-])c1 (stereo not drawn) [Compound S-5, Dimethyl 1,2,6-trimethyl-4-(3-nitrophenyl)-1,2-dihydropyridine-3,5-dicarboxylate]
51.3	COC(=O)C1=C(C)NC(C)=C(C(=O)OCCN(C)C)C1c1ccncc1 [Compound D-12, 3-[2-(N,N--dimethylamino)ethyl] -5-methyl 2,6-dimethyl-4-(4'-pyridyl)-1,4-dihydropyridine-3,5-dicarboxylate]

Same assay, conditions: conclusion from Table 7

Compound	calcium channel antagonist activity, comparison to Nifedipine (TM)
COC(=O)C1=C(C)NC(C)=C(C(=O)OC(C)C)C1c1ccncc1 [Compound D-10, 3-Isopropyl-5-methyl 2,6-dimethyl-4-(4'-pyridyl)-1,4-dihydropyridine-3,5-dicarboxylate]	active calcium channel antagonists, being comparable to Nifedipine (TM)
CCOC(=O)C1=C(C)NC(C)=C(C(=O)OCC)C1c1cccnc1 [Compound D-17, 3,5-Diethyl 2,6-dimethyl-4-(3'-pyridyl)-1,4-dihydropyridine-3,5-dicarboxylate]	active calcium channel antagonists, being comparable to Nifedipine (TM)
3-Isobutyl-5-methyl 2,6-dimethyl-4-{3'-[N--methoxycarbonyl-1',2'-(1',6'-)dihydropyridyl]}-1,4-dihydropyridine-3,5-dicarboxylate [Compound D-43]	active calcium channel antagonists, being comparable to Nifedipine (TM)
